Measured values reported in ChEMBL document CHEMBL1201862, “PubChem BioAssay data set” (2004).
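Test compounds were applied to cells in 96-well plates for 48 hours at 5 doses. GI50 marks 50% less growth.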 Activity calls are given as the source filed them. No stated cut-off is given here; in the data, active = GI50 up to about 1.1 µM and inactive = higher.

Legend:
Assay in all cases: DTP human tumour cell line panel, 48 h
OVCAR-4 = tested on: OVCAR-4
HOP-92 = tested on: HOP-92
SK-MEL-28 = tested on: SK-MEL-28
SNB-78 = tested on: SNB-78
NCI-H522 = tested on: NCI-H522
OVCAR-5 = tested on: OVCAR-5
SN12C = tested on: SN12C
SF-539 = tested on: SF-539
A549 = tested on: A549
M19-MEL = tested on: M19-MEL
HCT-15 = tested on: HCT-15
HL-60 = tested on: HL-60
DMS-114 = tested on: DMS-114
SF-268 = tested on: SF-268
CCRF-CEM = tested on: CCRF-CEM
NCI-H23 = tested on: NCI-H23
UACC-257 = tested on: UACC-257
HOP-62 = tested on: HOP-62
OVCAR-3 = tested on: OVCAR-3
MCF7 = tested on: MCF7
DLD-1 = tested on: DLD-1
COLO 205 = tested on: COLO 205
SK-MEL-2 = tested on: SK-MEL-2
NCI/ADR-RES = tested on: NCI/ADR-RES
CAKI-1 = tested on: CAKI-1
SW-620 = tested on: SW-620
RXF 393 = tested on: RXF 393
SNB-75 = tested on: SNB-75
SK-OV-3 = tested on: SK-OV-3
HOP-18 = tested on: HOP-18
A498 = tested on: A498
SNB-19 = tested on: SNB-19
UO-31 = tested on: UO-31
OVCAR-8 = tested on: OVCAR-8
HCT-116 = tested on: HCT-116
SF-295 = tested on: SF-295
LOX IMVI = tested on: LOX IMVI
UACC-62 = tested on: UACC-62
K562 = tested on: K562
SK-MEL-5 = tested on: SK-MEL-5
XF498 = tested on: XF498
Malme-3M = tested on: Malme-3M
KM-20L2 = tested on: KM-20L2
IGROV-1 = tested on: IGROV-1
HT-29 = tested on: HT-29
RPMI-8226 = tested on: RPMI-8226
NCI-H226 = tested on: NCI-H226
KM12 = tested on: KM12
DMS-273 = tested on: DMS-273
EKVX = tested on: EKVX
NCI-H460 = tested on: NCI-H460
MOLT-4 = tested on: MOLT-4
HCC 2998 = tested on: HCC 2998
U-251 = tested on: U-251

Compound: O=C1C(=O)c2cc([N+](=O)[O-])ccc2-c2ccc([N+](=O)[O-])cc21
- GI50 (OVCAR-4): 322 nM (active)
- GI50 (HOP-92): 210 nM (active)
- GI50 (SK-MEL-28): 1.99 µM (inactive)
- GI50 (SNB-78): 698 nM (active)
- GI50 (NCI-H522): 863 nM (active)
- GI50 (OVCAR-5): 3.27 µM (inactive)
- GI50 (SN12C): 927 nM (active)
- GI50 (SF-539): 741 nM (active)
- GI50 (A549): 2.52 µM (inactive)
- GI50 (M19-MEL): 285 nM (active)
- GI50 (HCT-15): 785 nM
- GI50 (HL-60): 246 nM (active)
- GI50 (DMS-114): 375 nM (active)
- GI50 (SF-268): 484 nM (active)
- GI50 (CCRF-CEM): 289 nM (active)
- GI50 (NCI-H23): 682 nM (active)
- GI50 (UACC-257): 1.2 µM (inactive)
- GI50 (HOP-62): 2.89 µM (inactive)
- GI50 (OVCAR-3): 290 nM (active)
- GI50 (MCF7): 933 nM (active)
- GI50 (DLD-1): 1.64 µM (inactive)
- GI50 (COLO 205): 3.01 µM (inactive)
- GI50 (SK-MEL-2): 2.02 µM (inactive)
- GI50 (NCI/ADR-RES): 344 nM (active)
- GI50 (CAKI-1): 733 nM (active)
- GI50 (SW-620): 401 nM (active)
- GI50 (RXF 393): 191 nM (active)
- GI50 (SNB-75): 2.14 µM (inactive)
- GI50 (SK-OV-3): 2.51 µM (inactive)
- GI50 (HOP-18): 1.71 µM (inactive)
- GI50 (A498): 1.9 µM (inactive)
- GI50 (SNB-19): 1.74 µM (inactive)
- GI50 (UO-31): 1.51 µM (inactive)
- GI50 (OVCAR-8): 351 nM (active)
- GI50 (HCT-116): 177 nM (active)
- GI50 (SF-295): 1.71 µM (inactive)
- GI50 (LOX IMVI): 346 nM (active)
- GI50 (UACC-62): 466 nM (active)
- GI50 (K562): 395 nM (active)
- GI50 (SK-MEL-5): 1.92 µM (inactive)
- GI50 (XF498): 1.23 µM (inactive)
- GI50 (Malme-3M): 1.97 µM (inactive)
- GI50 (KM-20L2): 4.88 µM (inactive)
- GI50 (IGROV-1): 748 nM (active)
- GI50 (HT-29): 7.46 µM (inactive)
- GI50 (RPMI-8226): 302 nM (active)
- GI50 (NCI-H226): 1.51 µM (inactive)
- GI50 (KM12): 935 nM (active)
- GI50 (DMS-273): 397 nM (active)
- GI50 (EKVX): 2.04 µM (inactive)
- GI50 (NCI-H460): 1 µM (active)
- GI50 (MOLT-4): 288 nM (active)
- GI50 (HCC 2998): 2.25 µM (inactive)
- GI50 (U-251): 773 nM (active)
